# Columns and labels:
# LaG18/GFP strain = conditions: 300 nM TD during cell culture; bleached for 90 sec at 525 nm
# Method: Flow cytometer histograms of LaG18/GFP strain labeled during cell culture with 300 nM TD. Mean values are shown; unbleached (red), bleached for 90 sec at 525 nm (blue), and unlabeled control cells (orange).
# Method for NB/TPD complexes: Green numbers are NB-gFAP signal; red numbers are TPD-rFAP signals. In vivo, cells treated with 300 nM TD during 3-day cell culture; in vitro, cells treated with TD after harvest in assay buffer for 4 hours.
# The green emitting fluorogen activating protein (gFAP) is genetically fused using GG assembly 3′ to each NB (NB-gFAP) where the gFAP may be ScFvl or AM2-2; the red emitting FAP (rFAP) is fused 3′ to each TPD (TPD-rFAP) where the rFAP is dL5. […] If co-expressed NB and TPD specifically bind one another, the TPD-rFAP will be captured on the surface of the co-expressing cell. However, its residence will be finite as determined by the binding affinity of the NB/TPD complex; most of the TPD-rFAP will be lost into the medium over the 3 day period of cell culture. […] This enables quantitative self-reporting of the presence of the NB/TPD complex as a ratio of red to green fluorescence. FACS will then be used to isolate cells displaying the complex.
# The secreted ectodomain TPD-rFAP fusions are initially sequestered within the yeast periplasmic space and/or inner cell wall, and upon buffer treatment released to outer cell surface over the course of a few hours (FIG. 22). […] A second feature of TDs is that they can be successfully applied to cells post-harvest instead of the usual inclusion of TDs in growth medium for 3 days.
substance,measurement,setting,value
sulfonate TO1-PEG3500-MG,binding affinities of NB/TPD complexes efficiently locked/captured on the yeast cell surface,NB/TPD complexes,≤ 20 µM
same,loss of rFAP/MG (TPD) signal after bleaching TO1 end of TD,LaG18/GFP strain,about half of the rFAP/MG signal is lost

# — US20250052765A1, “Nanobody Discovery Platform and Related Methods” (Carnegie Mellon University, priority 2021, published 2025)
